Measurements: the supplement of paper PMC13380429

Key:
[1] = test system: A549-ACE2 infected with SARS-CoV-2; test: SARS-CoV-2 infection rate relative to DMSO; higher = more infection; conditions: 24 h
[2] = test system: A549-ACE2; test: drug-induced phospholipidosis relative to tamoxifen; higher = more phospholipidosis
[3] = test system: Vero E6; test: relative viability EC50 (midpoint between 100% and the lowest measured viability); higher = less toxic; conditions: 72 h
[4] = test system: U2OS; test: as above; conditions: 72 h
[5] = test system: HepG2; test: as above; conditions: 72 h
[6] = test system: Calu-3; test: as above; conditions: 72 h
[7] = test system: Caco-2; test: as above; conditions: 72 h
[8] = test system: A549-ACE2 infected with SARS-CoV-2; test: morphology score (similarity to uninfected cells); higher = more like uninfected cells; conditions: 24 h
[9] = test system: A549-ACE2 infected with SARS-CoV-2; test: cell count relative to DMSO; higher = less toxic; conditions: 24 h
[10] = test system: Vero E6; test: drug sensitivity score (DSS) for viability; higher = more toxic; extreme values may be limits of the assay; conditions: 72 h
[11] = test system: U2OS; test: as above; conditions: 72 h
[12] = test system: HepG2; test: as above; conditions: 72 h
[13] = test system: Calu-3; test: as above; conditions: 72 h
[14] = test system: Caco-2; test: as above; conditions: 72 h
[15] = test system: Vero E6; test: cell viability relative to DMSO; higher = less toxic; conditions: 72 h
[16] = test system: U2OS; test: as above; conditions: 72 h
[17] = test system: HepG2; test: as above; conditions: 72 h
[18] = test system: Calu-3; test: as above; conditions: 72 h
[19] = test system: Caco-2; test: as above; conditions: 72 h
[20] = test system: A549-ACE2; test: phospholipidosis EC50; higher = less potent phospholipidosis inducer

CC[C@@H](C(=O)[C@@H](C)[C@@H](O)[C@H](C)[C@@H]1O[C@@H]([C@@H](CC)C(=O)O)CC[C@@H]1C)[C@H]1O[C@]2(C=C[C@@H](O)[C@]3(CC[C@@](C)([C@H]4CC[C@](O)(CC)[C@H](C)O4)O3)O2)[C@H](C)C[C@@H]1C [Salinomycin (Procoxacin)]
Conditions	SARS-CoV-2 infection rate, [1] [%]	cell count, [9] [%]	cell viability, [15] [%]	cell viability, [16] [%]	cell viability, [17] [%]	cell viability, [18] [%]	cell viability, [19] [%]	morphology score, [8]
1 nM	–	–	109	100	121	87.9	100	–
10 nM	–	–	103	105	108	91.4	98.7	–
100 nM	–	–	104	89.2	103	80.6	69.5	–
0.3 µM	28	118	–	–	–	–	–	0.84
1000 nM	–	–	70.1	68.7	36.6	53.1	38.3	–
3 µM	19	110	–	–	–	–	–	0.8
10 µM	26	116	–	–	–	–	–	0.51
10000 nM	–	–	44.7	22.6	25.3	26.5	17.3	–
30 µM	54	101	–	–	–	–	–	0

drug-induced phospholipidosis [%], [2]
Conditions	0.3 µM	0.833333 µM	3.33333 µM	6.66667 µM	10 µM	30 µM
24 h	2.06	-1.22	-9.27	4.33	16.4	32
48 h	3.07	-6.1	-3.84	10.2	–	–
72 h	12.7	–	–	–	–	–

Conditions	drug sensitivity score	relative viability EC50 [nM]
[3]	–	939
[4]	–	1230
[5]	–	513
[6]	–	360
[7]	–	224
[10]	6.7	–
[11]	7.8	–
[12]	11.6	–
[13]	11.6	–
[14]	15.4	–

Clc1ccc2c(c1)N=C(N1CCNCC1)c1ccccc1N2 [desmethylclozapine]
Conditions	SARS-CoV-2 infection rate [%]	cell count [%]	cell viability [%]	morphology score	phospholipidosis EC50 [nM]
[1], 0.3 µM	96	–	–	–	–
[1], 3 µM	62	–	–	–	–
[1], 10 µM	28	–	–	–	–
[1], 30 µM	13	–	–	–	–
[8], 0.3 µM	–	–	–	0.09	–
[8], 3 µM	–	–	–	0.63	–
[8], 10 µM	–	–	–	0.76	–
[8], 30 µM	–	–	–	0.73	–
[9], 0.3 µM	–	100	–	–	–
[9], 3 µM	–	112	–	–	–
[9], 10 µM	–	115	–	–	–
[9], 30 µM	–	121	–	–	–
[15], 1 nM	–	–	103	–	–
[15], 10 nM	–	–	107	–	–
[15], 100 nM	–	–	94.2	–	–
[15], 1000 nM	–	–	102	–	–
[15], 10000 nM	–	–	93	–	–
[16], 1 nM	–	–	106	–	–
[16], 10 nM	–	–	103	–	–
[16], 100 nM	–	–	100	–	–
[16], 1000 nM	–	–	102	–	–
[16], 10000 nM	–	–	97.6	–	–
[17], 1 nM	–	–	97.3	–	–
[17], 10 nM	–	–	105	–	–
[17], 100 nM	–	–	96.8	–	–
[17], 1000 nM	–	–	104	–	–
[17], 10000 nM	–	–	87.7	–	–
[18], 1 nM	–	–	104	–	–
[18], 10 nM	–	–	114	–	–
[18], 100 nM	–	–	104	–	–
[18], 1000 nM	–	–	116	–	–
[18], 10000 nM	–	–	91.8	–	–
[19], 1 nM	–	–	88	–	–
[19], 10 nM	–	–	94.2	–	–
[19], 100 nM	–	–	92.9	–	–
[19], 1000 nM	–	–	98.5	–	–
[19], 10000 nM	–	–	99.1	–	–
[20], 24 h	–	–	–	–	6540
[20], 48 h	–	–	–	–	6430
[20], 72 h	–	–	–	–	8340

drug-induced phospholipidosis [%], [2]
Conditions	0.3 µM	0.833333 µM	3.33333 µM	6.66667 µM	10 µM	30 µM
24 h	3.47	2.91	27	53.9	65.2	91.3
48 h	4.09	3.86	21.2	55.4	70.7	95.8
72 h	4.5	2.24	18.3	49.2	76.1	116

Conditions	drug sensitivity score	relative viability EC50 [nM]
[3]	–	> 10000
[4]	–	> 10000
[5]	–	> 10000
[6]	–	> 10000
[7]	–	> 10000
[10]	0	–
[11]	0	–
[12]	0	–
[13]	0	–
[14]	0	–

Oc1ccc2c(c1)CC[C@H](c1ccccc1)[C@@H]2c1ccc(OCCN2CCCC2)cc1 [lasofoxifene]
Conditions	SARS-CoV-2 infection rate [%]	cell count [%]	cell viability [%]	morphology score	phospholipidosis EC50 [nM]
[1], 0.1 µM	98	–	–	–	–
[1], 0.3 µM	95	–	–	–	–
[1], 1 µM	78	–	–	–	–
[1], 3 µM	40	–	–	–	–
[8], 0.1 µM	–	–	–	0.1	–
[8], 0.3 µM	–	–	–	0.07	–
[8], 1 µM	–	–	–	0.48	–
[8], 3 µM	–	–	–	0.72	–
[9], 0.1 µM	–	105	–	–	–
[9], 0.3 µM	–	102	–	–	–
[9], 1 µM	–	106	–	–	–
[9], 3 µM	–	120	–	–	–
[15], 1 nM	–	–	99.5	–	–
[15], 10 nM	–	–	103	–	–
[15], 100 nM	–	–	103	–	–
[15], 1000 nM	–	–	102	–	–
[15], 10000 nM	–	–	61.2	–	–
[16], 1 nM	–	–	105	–	–
[16], 10 nM	–	–	99.3	–	–
[16], 100 nM	–	–	102	–	–
[16], 1000 nM	–	–	95	–	–
[16], 10000 nM	–	–	69.3	–	–
[17], 1 nM	–	–	93.4	–	–
[17], 10 nM	–	–	97.3	–	–
[17], 100 nM	–	–	106	–	–
[17], 1000 nM	–	–	93.8	–	–
[17], 10000 nM	–	–	27.6	–	–
[18], 1 nM	–	–	88.7	–	–
[18], 10 nM	–	–	96.6	–	–
[18], 100 nM	–	–	97.6	–	–
[18], 1000 nM	–	–	95.9	–	–
[18], 10000 nM	–	–	3.8	–	–
[19], 1 nM	–	–	101	–	–
[19], 10 nM	–	–	106	–	–
[19], 100 nM	–	–	97.5	–	–
[19], 1000 nM	–	–	100	–	–
[19], 10000 nM	–	–	60.1	–	–
[20], 24 h	–	–	–	–	2320
[20], 48 h	–	–	–	–	2820
[20], 72 h	–	–	–	–	3000

drug-induced phospholipidosis [%], [2]
Conditions	0.3 µM	0.833333 µM	3.33333 µM	6.66667 µM	10 µM
24 h	8.45	22	81.6	102	112
48 h	7.62	12.5	79.3	91.7	119
72 h	6.02	12	69	83.8	120

Conditions	drug sensitivity score	relative viability EC50 [nM]
[5]	–	2460
[6]	–	2840
[10]	1.8	–
[11]	2.2	–
[12]	5	–
[13]	5.9	–
[14]	2	–
